± gives the standard deviation of the averaged measurements.
Experiments:
Assay in all cases: LOEC (log10 uM (lowest observed effect concentration))
Perfluorooctanoic acid = compound: O=C(O)C(F)(F)C(F)(F)C(F)(F)C(F)(F)C(F)(F)C(F)(F)C(F)(F)F [Perfluorooctanoic acid]
Description: (§1)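 BioMAP Diversity Plus panel in human primary cell co-cultures, 4 concentrations in duplicate blinded samples. Responses are log10 fold change versus DMSO control, processed with tcpl v2.1.0. A hit is called when responses at any concentration exceed the cutoff (the larger of 3*bmad or log10(1.2)); the lowest observed effect concentration (modl_ga, log10 uM) is reported for hits.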

[1] = compound: O=C(CC(=O)C(F)(F)C(F)(F)C(F)(F)F)c1cccs1 [(Perfluorobutyryl)-2-thenoylmethane]
Description: as §1

[2] = compound: C=CC(=O)OCC(F)(F)C(F)(F)C(F)(F)C(F)(F)COC(=O)C=C [1H,1H,6H,6H-Perfluorohexane-1,6-diol diacrylate]
Description: as §1

[3] = compound: OCCCC(F)(F)C(F)(F)C(F)(F)C(F)(F)C(F)(F)C(F)(F)C(F)(F)C(F)(F)F [3-(Perfluorooctyl)propanol]
Description: as §1

[4] = compound: FC(F)(I)C(F)(F)C(F)(F)C(F)(F)C(F)(F)C(F)(F)I [1,6-Diiodoperfluorohexane]
Description: as §1

Perfluoropinacol = compound: OC(C(F)(F)F)(C(F)(F)F)C(O)(C(F)(F)F)C(F)(F)F [Perfluoropinacol]
Description: as §1

[5] = compound: OCCC(F)(F)C(F)(F)C(F)(F)C(F)(F)C(F)(F)C(F)(F)C(F)(F)C(F)(F)F [8:2 Fluorotelomer alcohol]
Description: as §1

[6] = compound: OCC(F)(F)C(F)(F)C(F)(F)C(F)(F)C(F)(F)C(F)(F)C(F)(F)C(F)(F)CO [1H,1H,10H,10H-Perfluorodecane-1,10-diol]
Description: as §1

[7] = compound: C=CC(=O)OCC(F)(F)C(F)(F)C(F)(F)C(F)(F)C(F)(F)C(F)(F)C(F)(F)C(F)F [1H,1H,9H-Perfluorononyl acrylate]
Description: as §1

[8] = compound: OCC(F)(F)C(F)(F)C(F)(F)C(F)(F)C(F)(F)C(F)(F)C(F)(F)C(F)(F)C(F)(F)C(F)(F)C(F)(F)F [11:1 Fluorotelomer alcohol]
Description: as §1

[9] = compound: Cc1ccc(S(=O)(=O)OCC(F)(F)C(F)(F)C(F)(F)C(F)(F)C(F)(F)C(F)F)cc1 [1H,1H,7H-Perfluoroheptyl 4-methylbenzenesulfonate]
Description: as §1

[10] = compound: OCC(F)(F)C(F)(F)C(F)(F)C(F)(F)C(F)(F)C(F)(F)F [6:1 Fluorotelomer alcohol]
Description: as §1

[11] = compound: FC(F)(F)C(F)(F)C(F)(F)C(F)(F)CCI [1H,1H,2H,2H-Perfluorohexyl iodide]
Description: as §1

[12] = compound: O=C(O)C(F)(F)C(F)(F)C(F)(F)C(F)(F)C(F)(F)C(F)(F)C(F)(F)F [Ammonium perfluorooctanoate]
Description: as §1

[13] = compound: O=S(=O)(OCC(F)(F)F)C(F)(F)C(F)(F)C(F)(F)C(F)(F)F [2,2,2-Trifluoroethyl perfluorobutanesulfonate]
Description: as §1

Test System | LOEC (log10 uM) (Perfluorooctanoic acid) | LOEC (log10 uM) [1] | LOEC (log10 uM) [2] | LOEC (log10 uM) [3] | LOEC (log10 uM) [4] | LOEC (log10 uM) (Perfluoropinacol) | LOEC (log10 uM) [5] | LOEC (log10 uM) [6] | LOEC (log10 uM) [7] | LOEC (log10 uM) [8] | LOEC (log10 uM) [9] | LOEC (log10 uM) [10] | LOEC (log10 uM) [11] | LOEC (log10 uM) [12] | LOEC (log10 uM) [13]
LPS IL8 up | 1.78 |  |  |  |  |  |  |  |  |  |  |  |  |  | 
MyoF CollagenIII down |  | 1.3 | 1.3 | 1.3 | 0.845 | 1.3 | 1.3 | 1.78 | 1.78 |  |  |  |  |  | 
BE3C HLADR down |  | 1.3 | 1.3 | 1.78 | 1.54 ± 0.34 | 1.78 | 1.3 | 1.3 |  | -0.46 ± 0.34 |  |  |  |  | 
hDFCGF MCP1 down |  | 1.3 | 0.845 | 0.845 | 0.845 |  | 1.3 | 1.54 ± 0.34 |  |  | 1.07 ± 0.32 |  |  |  | 
BT xTNFa down |  | 1.3 | 0.301 | 1.3 | 1.3 | 1.78 | 1.54 ± 0.34 | 1.78 | 1.3 |  |  | 1.78 |  |  | 
BF4T Eotaxin3 down |  | 0.845 | 1.78 | 1.54 ± 0.34 | 1.3 | 1.3 | 1.3 | 1.78 |  |  |  |  |  |  | 
BE3C uPAR down |  | 1.78 | 1.78 | 1.78 | 1.78 | 1.3 | 1.54 ± 0.34 | 1.78 |  |  |  |  |  |  | 
hDFCGF TIMP2 down |  | 1.07 ± 0.32 | 1.07 ± 0.32 | 1.3 |  | 1.3 | 0.801 ± 0.71 |  |  |  |  |  | 1.78 |  | 
4H Pselectin up |  |  |  |  |  |  |  |  |  |  | 1.78 |  |  |  | 
IMphg SRB.Mphg down |  | 1.78 |  | 1.07 ± 0.32 | 1.3 | 1.78 | 1.78 | 1.54 ± 0.34 |  | -0.222 |  |  |  |  | 
3C Thrombomodulin down |  |  |  | 1.78 |  |  |  |  | 1.54 ± 0.34 |  |  |  |  |  | 
BT xIL6 down |  | 1.54 ± 0.34 | 0.845 | 1.54 ± 0.34 | 1.78 |  | 1.78 | 1.78 | 1.54 ± 0.34 |  |  |  |  |  | 
BT xIL17F up |  |  |  |  |  |  |  |  |  | -1.22 |  |  |  |  | 
BE3C MMP9 down |  | 1.3 | 1.54 ± 0.34 | 1.78 | 1.78 | 1.78 | 1.3 | 1.78 |  | -0.222 |  |  |  |  | 
BE3C PAI1 down |  | 0.301 |  | 1.78 | 1.54 ± 0.34 | 1.07 ± 0.32 | 1.3 | 1.78 |  |  |  |  |  |  | 
BT xIL17A down |  | 1.3 | 0.845 | 1.3 | 1.78 | 1.3 | 1.78 | 1.78 | 1.54 ± 0.34 |  |  |  |  |  | 
LPS CD69 down |  |  | 1.3 | 1.54 ± 0.34 | 1.78 | 1.07 ± 0.32 | 1.07 ± 0.32 |  |  |  |  |  |  | 1.78 | 
IMphg CD40 down |  | 1.3 | 1.3 | 1.3 | 1.3 | 1.3 | 1.78 | 1.54 ± 0.34 |  | 0.301 |  |  |  |  | 

Test System | LOEC (log10 uM) (Perfluorooctanoic acid) | LOEC (log10 uM) [1] | LOEC (log10 uM) [2] | LOEC (log10 uM) [3] | LOEC (log10 uM) [4] | LOEC (log10 uM) (Perfluoropinacol) | LOEC (log10 uM) [5] | LOEC (log10 uM) [6] | LOEC (log10 uM) [7] | LOEC (log10 uM) [8] | LOEC (log10 uM) [9] | LOEC (log10 uM) [10] | LOEC (log10 uM) [11] | LOEC (log10 uM) [12] | LOEC (log10 uM) [13]
4H Pselectin down |  | 1.3 | 1.07 ± 0.32 | 1.3 | 1.3 | 1.3 | 1.3 |  |  |  |  | 1.78 |  |  | 
MyoF CollagenIV up | 1.78 |  |  |  |  | 1.3 |  |  |  |  |  |  |  | 1.78 | 
hDFCGF Proliferation down |  | 0.845 | 0.301 | 0.845 | 0.301 | 0.845 | 0.845 | 1.54 ± 0.34 | 1.3 |  |  | 1.78 |  |  | 
SAg CD40 down |  | 0.845 | 1.07 ± 0.32 | 1.54 ± 0.34 | 1.78 | 1.3 | 1.54 ± 0.34 |  | 1.78 |  |  |  |  |  | 
IMphg SRB down |  | 1.3 |  | 1.54 ± 0.34 | 1.3 | 1.3 | 1.78 | 1.78 |  |  |  |  |  |  | 
MyoF VCAM1 down |  |  | 0.845 | 1.07 ± 0.32 | 0.573 ± 0.39 | 1.78 | 1.3 | 1.78 | 1.78 |  |  |  |  |  | 
BT Bcell Proliferation up | 1.78 |  |  |  |  |  |  |  |  |  |  |  |  |  | 
IMphg MIP1a down |  |  |  | 1.54 ± 0.34 | 1.54 ± 0.34 |  |  | 1.78 |  |  |  |  |  |  | 1.54 ± 0.34
IMphg MCP1 down |  | 1.3 | 1.31 ± 0.66 | 1.3 | 1.3 | 1.3 | 1.78 | 1.78 |  |  |  |  |  |  | 
hDFCGF IP10 down |  | 1.3 | 0.301 | 0.845 | 0.845 | 1.3 | 1.3 | 1.78 | 1.78 |  |  | 1.78 |  |  | 1.78
BE3C MMP1 up | 1.78 |  | 1.3 |  |  |  |  |  |  |  |  |  |  | 1.3 | 
BT xIL2 down |  | 1.78 | 0.845 | 1.78 | 1.54 ± 0.34 | 1.78 | 1.3 | 1.78 |  |  |  |  |  |  | 
BE3C ITAC down |  | 1.3 | 1.78 | 1.78 | 1.54 ± 0.34 | 1.78 | 1.3 | 1.3 |  |  |  |  |  |  | 
3C IL8 up | 1.78 |  |  |  |  |  |  |  |  |  |  |  |  |  | 
IMphg ESelectin up |  |  |  |  |  |  |  |  |  | 0.0396 ± 0.37 |  |  |  |  | 
hDFCGF CollagenIII down |  | 1.3 |  | 1.3 | 0.845 | 1.78 | 1.3 | 1.78 |  |  |  | 1.31 ± 0.66 |  | 1.78 | 
BE3C MIG down |  | 1.3 | 1.78 | 1.78 | 1.78 | 1.78 | 1.54 ± 0.34 | 1.78 |  |  |  | 1.78 |  |  | 
LPS PGE2 up |  |  |  |  |  | 1.3 |  |  |  | -0.722 ± 0.71 |  |  |  |  | 

From the supplement of paper PMC10331698
